# Test system: 648629-189-R-J1-PDC complex spheroids viability
# Test: Anticancer human tumor 648629-189-R-J1-PDC patient-derived bladder carcinoma cell line growth inhibition [CLK]
# Conditions: for IC50: curve of first compound; for viability, T/C: stronger effect = lower value
# Outline: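 Multi-cell-type spheroids combined patient-derived tumor cells with HUVEC endothelial cells and human mesenchymal stem cells. Paired agents were dosed in half-log steps down from about clinical Cmax, or from 10 microM where Cmax was unknown.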
# [1] = second compound 0.0316 µM, first compound 0.0316 µM
# [2] = second compound 0.0316 µM, first compound 0.1 µM
# [3] = second compound 0.1 µM, first compound 0.0316 µM
# [4] = second compound 0.1 µM, first compound 0.1 µM
# [5] = second compound 0.316 µM, first compound 0.0316 µM
# [6] = second compound 0.316 µM, first compound 0.1 µM
# [7] = second compound 1 µM, first compound 0.0316 µM
# [8] = second compound 1 µM, first compound 0.1 µM
# [9] = second compound 3.16 µM, first compound 0.0316 µM
# [10] = second compound 3.16 µM, first compound 0.1 µM
# [11] = second compound 10 µM, first compound 0.0316 µM
# [12] = second compound 10 µM, first compound 0.1 µM
# [13] = second compound 0.0316 µM, first compound 0.316 µM
# [14] = second compound 0.0316 µM, first compound 1 µM
# [15] = second compound 0.0316 µM, first compound 3.16 µM
# [16] = second compound 0.0316 µM, first compound 10 µM
# [17] = second compound 0.1 µM, first compound 0.316 µM
# [18] = second compound 0.1 µM, first compound 1 µM
# [19] = second compound 0.1 µM, first compound 3.16 µM
# [20] = second compound 0.1 µM, first compound 10 µM
# [21] = second compound 0.316 µM, first compound 0.316 µM
# [22] = second compound 0.316 µM, first compound 1 µM
# [23] = second compound 0.316 µM, first compound 3.16 µM
# [24] = second compound 0.316 µM, first compound 10 µM
# [25] = second compound 1 µM, first compound 0.316 µM
# [26] = second compound 1 µM, first compound 1 µM
# [27] = second compound 1 µM, first compound 3.16 µM
# [28] = second compound 1 µM, first compound 10 µM
# [29] = second compound 3.16 µM, first compound 0.316 µM
# [30] = second compound 3.16 µM, first compound 1 µM
# [31] = second compound 3.16 µM, first compound 3.16 µM
# [32] = second compound 3.16 µM, first compound 10 µM
# [33] = second compound 10 µM, first compound 0.316 µM
# [34] = second compound 10 µM, first compound 1 µM
# [35] = second compound 10 µM, first compound 3.16 µM
# [36] = second compound 10 µM, first compound 10 µM
# 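For viability, T/C in this document: drug exposure lasted seven days before viability readout; 100% = DMSO vehicle control wells.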
compound,measurement,setting,value
Cn1ncnc1[C@H]1c2n[nH]c(=O)c3cc(F)cc(c23)N[C@@H]1c1ccc(F)cc1 + CN1CCN(c2cc(C(=O)Nc3cc4cc(-c5cnn(C)c5)ccc4cn3)ccn2)CC1,IC50,second compound 0.0316 µM,> 0.1 µM
same,IC50,second compound 0.1 µM,> 0.1 µM
same,IC50,second compound 0.316 µM,< 0.000316 µM
same,IC50,second compound 1 µM,< 0.000316 µM
same,IC50,second compound 3.16 µM,< 0.000316 µM
same,IC50,second compound 10 µM,< 0.000316 µM
same,"viability, T/C","second compound 0.0316 µM, first compound 0.000316 µM",129%
same,"viability, T/C","second compound 0.0316 µM, first compound 0.001 µM",116%
same,"viability, T/C","second compound 0.0316 µM, first compound 0.00316 µM",107%
same,"viability, T/C","second compound 0.0316 µM, first compound 0.01 µM",90.2%
same,"viability, T/C",[1],87.8%
same,"viability, T/C",[2],69.7%
same,"viability, T/C","second compound 0.1 µM, first compound 0.000316 µM",111%
same,"viability, T/C","second compound 0.1 µM, first compound 0.001 µM",97.2%
same,"viability, T/C","second compound 0.1 µM, first compound 0.00316 µM",94.8%
same,"viability, T/C","second compound 0.1 µM, first compound 0.01 µM",93.5%
same,"viability, T/C",[3],87.7%
same,"viability, T/C",[4],81.2%
same,"viability, T/C","second compound 0.316 µM, first compound 0.000316 µM",46%
same,"viability, T/C","second compound 0.316 µM, first compound 0.001 µM",39.1%
same,"viability, T/C","second compound 0.316 µM, first compound 0.00316 µM",43.5%
same,"viability, T/C","second compound 0.316 µM, first compound 0.01 µM",40.1%
same,"viability, T/C",[5],35.3%
same,"viability, T/C",[6],35.6%
same,"viability, T/C","second compound 1 µM, first compound 0.000316 µM",0.38%
same,"viability, T/C","second compound 1 µM, first compound 0.001 µM",0.8%
same,"viability, T/C","second compound 1 µM, first compound 0.00316 µM",0.73%
same,"viability, T/C","second compound 1 µM, first compound 0.01 µM",0.22%
same,"viability, T/C",[7],0.2%
same,"viability, T/C",[8],1.42%
same,"viability, T/C","second compound 3.16 µM, first compound 0.000316 µM",0.1%
same,"viability, T/C","second compound 3.16 µM, first compound 0.001 µM",0.5%
same,"viability, T/C","second compound 3.16 µM, first compound 0.00316 µM",0.12%
same,"viability, T/C","second compound 3.16 µM, first compound 0.01 µM",0.08%
same,"viability, T/C",[9],0.08%
same,"viability, T/C",[10],0.16%
same,"viability, T/C","second compound 10 µM, first compound 0.000316 µM",0.12%
same,"viability, T/C","second compound 10 µM, first compound 0.001 µM",0.13%
same,"viability, T/C","second compound 10 µM, first compound 0.00316 µM",0.82%
same,"viability, T/C","second compound 10 µM, first compound 0.01 µM",0.14%
same,"viability, T/C",[11],0.13%
same,"viability, T/C",[12],0.15%
Nc1ccn(C2OC(CO)C(O)C2(F)F)c(=O)n1 (stereo unspecified) + CN1CCN(c2cc(C(=O)Nc3cc4cc(-c5cnn(C)c5)ccc4cn3)ccn2)CC1,IC50,second compound 0.0316 µM,0.0529 µM
same,IC50,second compound 0.1 µM,0.0498 µM
same,IC50,second compound 0.316 µM,< 0.0316 µM
same,IC50,second compound 1 µM,< 0.0316 µM
same,IC50,second compound 3.16 µM,< 0.0316 µM
same,IC50,second compound 10 µM,< 0.0316 µM
same,"viability, T/C",[1],65.2%
same,"viability, T/C",[2],31.1%
same,"viability, T/C",[13],11.9%
same,"viability, T/C",[14],5.88%
same,"viability, T/C",[15],5.69%
same,"viability, T/C",[16],4.49%
same,"viability, T/C",[3],67.7%
same,"viability, T/C",[4],22.8%
same,"viability, T/C",[17],10.1%
same,"viability, T/C",[18],5.67%
same,"viability, T/C",[19],4.53%
same,"viability, T/C",[20],3.3%
same,"viability, T/C",[5],32.1%
same,"viability, T/C",[6],22.7%
same,"viability, T/C",[21],13%
same,"viability, T/C",[22],7.45%
same,"viability, T/C",[23],9.18%
same,"viability, T/C",[24],5.35%
same,"viability, T/C",[7],0.19%
same,"viability, T/C",[8],0.38%
same,"viability, T/C",[25],1.02%
same,"viability, T/C",[26],0.31%
same,"viability, T/C",[27],0.14%
same,"viability, T/C",[28],1.01%
same,"viability, T/C",[9],0.09%
same,"viability, T/C",[10],1.1%
same,"viability, T/C",[29],0.11%
same,"viability, T/C",[30],0.09%
same,"viability, T/C",[31],0.1%
same,"viability, T/C",[32],0.39%
same,"viability, T/C",[11],0.12%
same,"viability, T/C",[12],0.13%
same,"viability, T/C",[33],0.17%
same,"viability, T/C",[34],0.17%
same,"viability, T/C",[35],0.28%
same,"viability, T/C",[36],0.17%
O=c1[nH]cc(F)c(=O)[nH]1 + CN1CCN(c2cc(C(=O)Nc3cc4cc(-c5cnn(C)c5)ccc4cn3)ccn2)CC1,IC50,second compound 0.0316 µM,1.47 µM
same,IC50,second compound 0.1 µM,1.08 µM
same,IC50,second compound 0.316 µM,< 0.0316 µM
same,IC50,second compound 1 µM,< 0.0316 µM
same,IC50,second compound 3.16 µM,< 0.0316 µM
same,IC50,second compound 10 µM,< 0.0316 µM
same,"viability, T/C",[1],114%
same,"viability, T/C",[2],121%
same,"viability, T/C",[13],83%
same,"viability, T/C",[14],63.3%
same,"viability, T/C",[15],30.7%
same,"viability, T/C",[16],21.9%
same,"viability, T/C",[3],114%
same,"viability, T/C",[4],97.7%
same,"viability, T/C",[17],96.3%
same,"viability, T/C",[18],49.1%
same,"viability, T/C",[19],33.7%
same,"viability, T/C",[20],21.9%
same,"viability, T/C",[5],40.7%
same,"viability, T/C",[6],40.6%
same,"viability, T/C",[21],34.1%
same,"viability, T/C",[22],29.9%
same,"viability, T/C",[23],23.9%
same,"viability, T/C",[24],20.7%
same,"viability, T/C",[7],0.35%
same,"viability, T/C",[8],0.26%
same,"viability, T/C",[25],0.78%
same,"viability, T/C",[26],0.34%
same,"viability, T/C",[27],0.27%
same,"viability, T/C",[28],1.43%
same,"viability, T/C",[9],0.06%
same,"viability, T/C",[10],1.49%
same,"viability, T/C",[29],0.1%
same,"viability, T/C",[30],0.07%
same,"viability, T/C",[31],0.55%
same,"viability, T/C",[32],0.1%
same,"viability, T/C",[11],0.06%
same,"viability, T/C",[12],0.27%
same,"viability, T/C",[33],3.05%
same,"viability, T/C",[34],0.13%
same,"viability, T/C",[35],1.38%
same,"viability, T/C",[36],1.3%
